Assay results taken from article PMC5971447, “Selective inhibition of intestinal guanosine 3′,5′-cyclic monophosphate signaling by small-molecule protein kinase inhibitors” (The Journal of Biological Chemistry, 2018).

Experiments:
[1] = biological target: T1, cGKII (Homo sapiens, UniProt Q13237); experiment: […]-ATP peptide (2A3) phosphorylation; type: biochemical; details: read-out: pIC50 in vitro (converted)
T1 construct: gene PRKG2; recombinant full-length, His-tagged, baculovirus insect cell expression; dimer
T1 sequence (Q13237 2-762): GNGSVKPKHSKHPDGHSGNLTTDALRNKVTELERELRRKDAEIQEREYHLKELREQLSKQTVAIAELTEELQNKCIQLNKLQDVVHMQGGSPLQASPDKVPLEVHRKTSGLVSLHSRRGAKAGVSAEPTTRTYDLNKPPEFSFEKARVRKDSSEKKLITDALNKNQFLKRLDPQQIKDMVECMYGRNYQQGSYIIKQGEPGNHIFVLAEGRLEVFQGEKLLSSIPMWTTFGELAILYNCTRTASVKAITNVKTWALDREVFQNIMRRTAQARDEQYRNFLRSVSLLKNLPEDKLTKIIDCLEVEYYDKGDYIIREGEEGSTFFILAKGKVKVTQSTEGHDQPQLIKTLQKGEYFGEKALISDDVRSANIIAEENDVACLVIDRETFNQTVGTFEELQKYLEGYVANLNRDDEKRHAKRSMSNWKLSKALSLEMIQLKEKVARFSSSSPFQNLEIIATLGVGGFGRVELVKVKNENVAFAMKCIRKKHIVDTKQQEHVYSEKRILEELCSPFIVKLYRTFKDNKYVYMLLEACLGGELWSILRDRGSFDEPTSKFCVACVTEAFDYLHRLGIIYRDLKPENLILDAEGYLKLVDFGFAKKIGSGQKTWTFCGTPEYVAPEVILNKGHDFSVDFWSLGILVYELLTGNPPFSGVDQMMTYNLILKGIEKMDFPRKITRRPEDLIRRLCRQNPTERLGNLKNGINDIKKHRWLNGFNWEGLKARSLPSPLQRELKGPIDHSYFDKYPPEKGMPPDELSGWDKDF

[2] = biological target: T2, cGKI (Homo sapiens, UniProt Q13976); experiment: […]-ATP peptide (2A3) phosphorylation; type: biochemical; details: 50 uM cGMP, pH 7.4, 5 mM MgCl2, 22 C
T2 construct: gene PRKG1; recombinant full-length, commercial (Promega)
T2 sequence (Q13976 2-671): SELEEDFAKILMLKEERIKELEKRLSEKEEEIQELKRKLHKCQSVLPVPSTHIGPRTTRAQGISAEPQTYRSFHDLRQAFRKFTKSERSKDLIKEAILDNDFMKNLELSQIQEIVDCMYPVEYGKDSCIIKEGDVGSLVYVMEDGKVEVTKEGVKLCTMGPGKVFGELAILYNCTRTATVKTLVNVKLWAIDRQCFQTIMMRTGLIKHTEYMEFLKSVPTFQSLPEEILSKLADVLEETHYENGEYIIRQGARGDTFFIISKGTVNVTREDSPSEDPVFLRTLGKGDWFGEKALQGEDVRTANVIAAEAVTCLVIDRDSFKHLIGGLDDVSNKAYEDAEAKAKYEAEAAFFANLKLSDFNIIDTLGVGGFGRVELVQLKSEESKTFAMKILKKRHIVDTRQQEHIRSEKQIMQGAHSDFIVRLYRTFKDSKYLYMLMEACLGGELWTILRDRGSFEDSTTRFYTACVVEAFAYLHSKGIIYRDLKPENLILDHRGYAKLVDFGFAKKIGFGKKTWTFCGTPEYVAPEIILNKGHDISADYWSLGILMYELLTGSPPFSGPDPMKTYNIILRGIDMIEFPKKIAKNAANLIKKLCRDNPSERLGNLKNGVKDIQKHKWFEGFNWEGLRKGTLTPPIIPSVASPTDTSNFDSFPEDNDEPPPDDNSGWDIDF

| Structure (SMILES) | IC50 [1] [nM] | pIC50 [2] |
| --- | --- | --- |
| c1csc(-c2ccnc(NCCc3c[nH]c4ccccc34)n2)c1 [AP-C2] | 6310 |  |
| COc1ccc(CCNc2nccc(-c3ccc4c(c3)OCCO4)n2)cc1OC [AP-C3] | 501 |  |
| COc1ccc(CCNc2nccc(-c3ccc4ccccc4c3)n2)cc1OC [AP-C1] | 316 |  |
| c1ccc2c(CCNc3nccc(-c4ccc5c(c4)OCCO5)n3)c[nH]c2c1 [AP-C4] | 6310 |  |

More lines, main results first:

| IC50 [1] [nM] | Structure (SMILES) | pIC50 [2] |
| --- | --- | --- |
| 10000 | c1coc(CNc2nccc(-c3ccc(-n4ccnc4)cc3)n2)c1 [AP-C7] |  |
| 63.1 | C#CCNc1nccc(-c2ccc(-n3ccnc3)cc2)n1 [AP-C5] | potency of inhibition of cGKI and PKA was markedly lower than of cGKII |
| 316 | OCCNc1nccc(-c2ccc(-n3ccnc3)cc2)n1 [AP-C6] | potency of inhibition of cGKI and PKA was markedly lower than of cGKII |
